# Experimental data from patent US10799496B2, “Naphthylenyl compounds for long-acting injectable compositions and related methods” (priority 2018, dated 2020).
# Tests used:
# [1] = Whole blood stability assay; type: in vitro ADME; conditions: prodrug 50 nM, fresh pooled human whole blood, 37 degrees C.; read-out: t1/2 at 37 degrees C. in human whole blood
# Method: Naltrexone prodrug stability was assessed using freshly collected whole blood (within 24-hr collection) from pooled human (n=3) donors. The incubation mixtures were prepared by spiking the prodrugs into pre-warmed (37 degrees C.) fresh whole blood to a final concentration of 50 nM. After gentle mixing, aliquots of incubation mixtures were immediately transferred into four different 96-deep well plates. One plate was used for each time point. The plates were incubated at 37 degrees C. at a shaking speed of 100 rpm. At time points 15, 30, 60 and 120 minutes, the reaction was quenched by addition of a mixture of water and acetonitrile containing the internal standard (naltrexone-D3). Time point 0 minutes was prepared separately by spiking the prodrugs into a quenched whole blood to obtain a final concentration of 50 nM. All samples were vortexed at a low speed for 15 min and centrifuged at 3900 rpm for 15 min. Supernatants were transferred into 96-well plates for LC-MS/MS analysis to monitor the depletion of the prodrugs and the formation of naltrexone.
# The amount of remaining prodrug and released naltrexone for each sample was quantitated against the calibration curves prepared with the whole blood. The human whole blood was purchased from BioreclamationIVT (Westbury, N.Y., USA). Naltrexone-D3 was purchased from CERILLIANT® (Round Rock, Tex., USA). […] Where multiple runs have been completed, average values are reported.
# [2] = Pharmacokinetic evaluation of the release of naltrexone from Compound 2 in rats following a single intramuscular injection; type: in vivo, Sprague-Dawley rats; conditions: rat plasma
# Method: Five male Sprague-Dawley rats were allowed to acclimate to the test facility for at least 2 days prior to study start. For dose administration of Compound 2, the rats were lightly anesthetized with isofluorane, the hind leg shaved and dosed intramuscularly with the formulation using a 21G needle. […] Serial whole blood samples were collected via sublingual route (˜150 μL) at 1, 8, and 24 hours post dose, and at 2, 4, 7, 10, 14, 17, 21, 24, 28, 35, 42, 49, 56, 63, 71, 78, 85, and 91 days post dose.
# Blood samples were placed into K2EDTA blood collection tubes. After collection, blood samples were maintained chilled (on wet ice) and centrifuged (11,500 rpm for 2 minutes at 5 degrees C.) within 30 minutes to obtain plasma. Plasma was transferred into a single vial, 1.5 mL screw cap micro-centrifuge tube with inserts and stored at −80 degrees C. until analysis.
# The formulation dosed was a crystalline suspension of Compound 2 (46 milligrams of Compound 2 dosed per animal), wherein the crystalline test article was characterized with a particle size distribution of Dv10=12.9 μm, Dv50=31.5 μm, and Dv90=63.1 μm (as measured via laser diffraction). The formulation was prepared the day before dosing. Details of the formulation dosed are described in Table D below.
# Results of the above intramuscular rat study of Compound 2 are shown in Tables E and F. In particular, Table E reports the average blood plasma levels of naltrexone in rat (n=5) over 91 days following intramuscular administration.
structure (smiles),measurement,setting,value
"O=C(Cc1ccc2cc(CC(=O)Oc3ccc4c5c3O[C@H]3C(=O)CC[C@@]6(O)[C@@H](C4)N(CC4CC4)CC[C@]536)ccc2c1)Oc1ccc2c3c1O[C@H]1C(=O)CC[C@@]4(O)[C@@H](C2)N(CC2CC2)CC[C@]314 [Compound 2, bis((4R,4aS,7aR,12bS)-3-(cyclopropylmethyl)-4a-hydroxy-7-oxo-2,3,4,4a,5,6,7,7a-octahydro-1H-4,12-methanobenzofuro[3,2-e]isoquinolin-9-yl) 2,2′-(naphthalene-2,6-diyl)diacetate]",half-life at 50 nM,[1],20.9 min
same,Compound 2 conc.,"[2]; single i.m. dose of Compound 2, day 0.042 (1 hr), Rat 1",0.223 ng/mL
same,Compound 2 conc.,"[2]; single i.m. dose of Compound 2, day 0.042 (1 hr), Rat 2",0.112 ng/mL
same,Compound 2 conc.,"[2]; single i.m. dose of Compound 2, day 0.042 (1 hr), Rat 3",<0.1 ng/mL
same,Compound 2 conc.,"[2]; single i.m. dose of Compound 2, day 0.042 (1 hr), Rat 4",0.131 ng/mL
same,Compound 2 conc.,"[2]; single i.m. dose of Compound 2, day 0.042 (1 hr), Rat 5",0.113 ng/mL
same,Compound 2 conc.,"[2]; single i.m. dose of Compound 2, day 0.33 (8 hr), Rat 1",<0.1 ng/mL
same,Compound 2 conc.,"[2]; single i.m. dose of Compound 2, day 0.33 (8 hr), Rat 2",<0.1 ng/mL
same,Compound 2 conc.,"[2]; single i.m. dose of Compound 2, day 0.33 (8 hr), Rat 3",<0.1 ng/mL
same,Compound 2 conc.,"[2]; single i.m. dose of Compound 2, day 0.33 (8 hr), Rat 4",<0.1 ng/mL
same,Compound 2 conc.,"[2]; single i.m. dose of Compound 2, day 0.33 (8 hr), Rat 5",<0.1 ng/mL
same,Compound 2 conc.,"[2]; single i.m. dose of Compound 2, day 1, Rat 1",<0.1 ng/mL
same,Compound 2 conc.,"[2]; single i.m. dose of Compound 2, day 1, Rat 2",<0.1 ng/mL
same,Compound 2 conc.,"[2]; single i.m. dose of Compound 2, day 1, Rat 3",<0.1 ng/mL
same,Compound 2 conc.,"[2]; single i.m. dose of Compound 2, day 1, Rat 4",<0.1 ng/mL
same,Compound 2 conc.,"[2]; single i.m. dose of Compound 2, day 1, Rat 5",<0.1 ng/mL
same,Compound 2 conc.,"[2]; single i.m. dose of Compound 2, day 2, Rat 1",<0.1 ng/mL
same,Compound 2 conc.,"[2]; single i.m. dose of Compound 2, day 2, Rat 2",<0.1 ng/mL
same,Compound 2 conc.,"[2]; single i.m. dose of Compound 2, day 2, Rat 3",<0.1 ng/mL
same,Compound 2 conc.,"[2]; single i.m. dose of Compound 2, day 2, Rat 4",<0.1 ng/mL
same,Compound 2 conc.,"[2]; single i.m. dose of Compound 2, day 2, Rat 5",<0.1 ng/mL
same,Compound 2 conc.,"[2]; single i.m. dose of Compound 2, day 7, Rat 1",<0.1 ng/mL
same,Compound 2 conc.,"[2]; single i.m. dose of Compound 2, day 7, Rat 2",<0.1 ng/mL
same,Compound 2 conc.,"[2]; single i.m. dose of Compound 2, day 7, Rat 3",0.175 ng/mL
same,Compound 2 conc.,"[2]; single i.m. dose of Compound 2, day 7, Rat 4",<0.1 ng/mL
same,Compound 2 conc.,"[2]; single i.m. dose of Compound 2, day 7, Rat 5",<0.1 ng/mL
same,Compound 2 conc.,"[2]; single i.m. dose of Compound 2, day 10, Rat 1",0.111 ng/mL
same,Compound 2 conc.,"[2]; single i.m. dose of Compound 2, day 10, Rat 2",<0.1 ng/mL
same,Compound 2 conc.,"[2]; single i.m. dose of Compound 2, day 10, Rat 3",0.104 ng/mL
same,Compound 2 conc.,"[2]; single i.m. dose of Compound 2, day 10, Rat 4",0.119 ng/mL
same,Compound 2 conc.,"[2]; single i.m. dose of Compound 2, day 10, Rat 5",<0.1 ng/mL
same,Compound 2 conc.,"[2]; single i.m. dose of Compound 2, day 14, Rat 1",0.119 ng/mL
same,Compound 2 conc.,"[2]; single i.m. dose of Compound 2, day 14, Rat 2",0.135 ng/mL
same,Compound 2 conc.,"[2]; single i.m. dose of Compound 2, day 14, Rat 3",<0.1 ng/mL
same,Compound 2 conc.,"[2]; single i.m. dose of Compound 2, day 14, Rat 4",0.144 ng/mL
same,Compound 2 conc.,"[2]; single i.m. dose of Compound 2, day 14, Rat 5",0.136 ng/mL
same,Compound 2 conc.,"[2]; single i.m. dose of Compound 2, day 17, Rat 1",<0.1 ng/mL
same,Compound 2 conc.,"[2]; single i.m. dose of Compound 2, day 17, Rat 2",<0.1 ng/mL
same,Compound 2 conc.,"[2]; single i.m. dose of Compound 2, day 17, Rat 3",<0.1 ng/mL
same,Compound 2 conc.,"[2]; single i.m. dose of Compound 2, day 17, Rat 4",<0.1 ng/mL
same,Compound 2 conc.,"[2]; single i.m. dose of Compound 2, day 17, Rat 5",<0.1 ng/mL
same,Compound 2 conc.,"[2]; single i.m. dose of Compound 2, day 21, Rat 1",<0.1 ng/mL
same,Compound 2 conc.,"[2]; single i.m. dose of Compound 2, day 21, Rat 2",<0.1 ng/mL
same,Compound 2 conc.,"[2]; single i.m. dose of Compound 2, day 21, Rat 3",<0.1 ng/mL
same,Compound 2 conc.,"[2]; single i.m. dose of Compound 2, day 21, Rat 4",<0.1 ng/mL
same,Compound 2 conc.,"[2]; single i.m. dose of Compound 2, day 21, Rat 5",3.25 ng/mL
same,Compound 2 conc.,"[2]; single i.m. dose of Compound 2, day 24, Rat 1",0.198 ng/mL
same,Compound 2 conc.,"[2]; single i.m. dose of Compound 2, day 24, Rat 2",0.177 ng/mL
same,Compound 2 conc.,"[2]; single i.m. dose of Compound 2, day 24, Rat 3",0.217 ng/mL
same,Compound 2 conc.,"[2]; single i.m. dose of Compound 2, day 24, Rat 4",0.170 ng/mL
same,Compound 2 conc.,"[2]; single i.m. dose of Compound 2, day 24, Rat 5",0.280 ng/mL
